The source of these data is patent US20240174718A1, “RYANODINE RECEPTOR INHIBITOR COMPOUNDS AND METHODS RELATING THERETO” (Vanderbilt University, priority 2022, published 2024).

Structures are written as SMILES. Read-outs that look alike come from different tables or passages of the source.

Data set [1] is described as follows: In vivo pharmacokinetic study after intraperitoneal administration. More on the design: species or system mouse. The conditions noted are these: for half-life: 3 mg/kg. The method, then:
FIGS. 11(A-B) show in vivo pharmacokinetics in mice for a compound of the present invention. […] N=3 mice. Plasma collected serially at 0.167, 0.333. 0.5, 1, 3, and 8 hours post-administration. […] Individual data points (grey) shown alongside mean values with connecting lines.
In vivo pharmacokinetic study—The pharmacokinetic study was carried out by a contract research organization, Pharmaron, Inc. Mice were housed with free access to food and water. All protocols and procedures were compliant with Animal care and Use Application approved by the Institution Animal Care and Use Committee of Pharmaron, Inc., (protocol #PH-DMPK-VUMC-22-003) following the guidance of the Association for Assessment and Accreditation of Laboratory Animal Care (AAALAC). An ent-B1 dose of 3 mg/kg (drug/body weight) was used. Three male CDI mice, age 6-8 weeks, were selected for the study. Mice were injected intraperitoneally with ent-B1 dissolved in solution containing 10% Tween 20, 10% DMSO, 40% water, and 40% PEG-400 (v/v, 5 mL/kg), with a final concentration of 0.6 mg/mL. 30 μL of blood was collected from each animal at 10, 20, 30, 60, 180, and 480 minutes following drug administration and centrifuged at 5000×g, 4° C. for 5 minutes to obtain plasma. The samples were stored at −75±15° C. until analysis.
LC-MS/MS analysis of ent-B1—LC-MS/MS with electronspray ionization in the positive ion mode setting was used to detect ent-B1 followed by multiple reaction monitoring of precursor and product ions as follows: ent-B1 (mass-to-charge ratio [m/z] 640.18 to 214.00). Mouse plasma was quantified using nine standards (0.5-1000 ng/ml) and four quality control levels (1, 2, 50, 800 ng/ml) prepared independently of those used for the standard curve. 20 μL of standards, quality control samples, and unknown samples (10 μL plasma and 10 μL blank solution) were added to 200 μL acetonitrile containing internal standard (dexamethasone; [m/z] 393.40 to 373.30) for protein precipitation. The samples were vortexed for 30 seconds, centrifuged for 15 minutes at 4000 rpm and […], and the supernatant was diluted five times with water. Samples were then loaded into SIL-30AC autosampler and 10 μL was injected into a Shimadzu LC-30AD Series HPLC coupled to an AB Sciex Triple Quad 5500 mass spectrometer. Analytes were separated on a Raptor Biphenyl column (50×2.1 mm, 2.7 um) using a 95:5 (v/v) mobile phase mixture of 0.1% formic acid in water (mobile phase A) and 0.1% formic acid in acetonitrile (mobile phase B) at the flow rate of 0.6 ml/min. The gradient for mobile phase B was increased to 95% over 1.4 minutes with a total run time of 2.5 minutes for each sample. All quality controls and standards met the following acceptance criteria 1) standard curve of at least five standards are within 15% of their nominal concentrations and at least 50% at each quality control level (low, medium, and high) were within 15% of their nominal concentrations.
Pharmacokinetic analysis—Plasma concentrations of ent-B1 at each time point were imported to Phoenix WinNonlin® 8.0 software (Certara USA, Inc., Princeton, NJ). Plasma concentration time profiles for individual animals were analyzed by noncompartmental analysis using model 200 (Plasma; Single Extravascular Dose; Linear Log Trapezoidal Method) to approximate the elimination rate constant (ke), half-life (T1/2), maximum observed plasma concentration (Cmax), time to maximum observed plasma concentration (Tmax), the area under the plasma concentration-time curve from zero to infinity (AUCinf).

Data set [2] addresses T1, RyR2 (Mus musculus, UniProt E9Q401).
T1 construct: spontaneous openings of intracellular RyR2 Ca^2+ release channels; endogenous in cells; host or cells: ventricular cardiomyocytes isolated from Casq2-/- mice (saponin-permeabilized in A1, intact in A7)
Kind of data set: Calcium spark frequency in permeabilized Casq2 knockout cardiomyocytes (screen for RyR2 activity). It is filed as cell-based. The method, then: FIGS. 3(A)-3(E) show a biological screen for cardiac ryanodine receptor (RyR2) activity. Note that ‘ent-24’=9, and ‘ent-18’ refers to structure 8 in FIG. 1, which is also the enantiomer of a natural product. (3A) Calcium spark frequency in permeabilized murine cardiomyocytes was recorded as an index of RyR2 activity. Compounds were screened at 25 uM concentration after 10-minute incubation. *=p<0.001 by one-way ANOVA with Tukey's post-hoc test. (3B) Incubation time was extended to 60 minutes for the 12- and 30-membered rings. (3C) The seco-acid precursors to 12- and 18-membered rings were tested at 25 uM. (3D) Concentration response curve for the 18-membered ring and (3E) 24-membered ring. Cells were incubated for 30 minutes
Activity of Ring-Size Analogues. […] Ventricular cardiomyocytes were isolated, permeabilized with saponin, and incubated with vehicle (DMSO) or 25 μM of selected compound. RyR2 activity was measured in the form of calcium sparks, which are elementary Ca^2+ release events generated by spontaneous openings of intracellular RyR2 Ca^2+ release channels. Importantly, saponin selectively permeabilizes the sarcolemmal membrane, leaving the SR membrane intact and ensuring equivalent access of the compounds to the SR membrane where RyR2 resides.
The compounds were first screened by incubating cardiomyocytes for 10 minutes at 25 μM concentration and compared to vehicle (DMSO) conditions.

Setting [3] is: male, mouse, plasma, ip, 3 mg/kg intraperitoneal, CD1 mice.

T1 sequence (E9Q401 whole entry): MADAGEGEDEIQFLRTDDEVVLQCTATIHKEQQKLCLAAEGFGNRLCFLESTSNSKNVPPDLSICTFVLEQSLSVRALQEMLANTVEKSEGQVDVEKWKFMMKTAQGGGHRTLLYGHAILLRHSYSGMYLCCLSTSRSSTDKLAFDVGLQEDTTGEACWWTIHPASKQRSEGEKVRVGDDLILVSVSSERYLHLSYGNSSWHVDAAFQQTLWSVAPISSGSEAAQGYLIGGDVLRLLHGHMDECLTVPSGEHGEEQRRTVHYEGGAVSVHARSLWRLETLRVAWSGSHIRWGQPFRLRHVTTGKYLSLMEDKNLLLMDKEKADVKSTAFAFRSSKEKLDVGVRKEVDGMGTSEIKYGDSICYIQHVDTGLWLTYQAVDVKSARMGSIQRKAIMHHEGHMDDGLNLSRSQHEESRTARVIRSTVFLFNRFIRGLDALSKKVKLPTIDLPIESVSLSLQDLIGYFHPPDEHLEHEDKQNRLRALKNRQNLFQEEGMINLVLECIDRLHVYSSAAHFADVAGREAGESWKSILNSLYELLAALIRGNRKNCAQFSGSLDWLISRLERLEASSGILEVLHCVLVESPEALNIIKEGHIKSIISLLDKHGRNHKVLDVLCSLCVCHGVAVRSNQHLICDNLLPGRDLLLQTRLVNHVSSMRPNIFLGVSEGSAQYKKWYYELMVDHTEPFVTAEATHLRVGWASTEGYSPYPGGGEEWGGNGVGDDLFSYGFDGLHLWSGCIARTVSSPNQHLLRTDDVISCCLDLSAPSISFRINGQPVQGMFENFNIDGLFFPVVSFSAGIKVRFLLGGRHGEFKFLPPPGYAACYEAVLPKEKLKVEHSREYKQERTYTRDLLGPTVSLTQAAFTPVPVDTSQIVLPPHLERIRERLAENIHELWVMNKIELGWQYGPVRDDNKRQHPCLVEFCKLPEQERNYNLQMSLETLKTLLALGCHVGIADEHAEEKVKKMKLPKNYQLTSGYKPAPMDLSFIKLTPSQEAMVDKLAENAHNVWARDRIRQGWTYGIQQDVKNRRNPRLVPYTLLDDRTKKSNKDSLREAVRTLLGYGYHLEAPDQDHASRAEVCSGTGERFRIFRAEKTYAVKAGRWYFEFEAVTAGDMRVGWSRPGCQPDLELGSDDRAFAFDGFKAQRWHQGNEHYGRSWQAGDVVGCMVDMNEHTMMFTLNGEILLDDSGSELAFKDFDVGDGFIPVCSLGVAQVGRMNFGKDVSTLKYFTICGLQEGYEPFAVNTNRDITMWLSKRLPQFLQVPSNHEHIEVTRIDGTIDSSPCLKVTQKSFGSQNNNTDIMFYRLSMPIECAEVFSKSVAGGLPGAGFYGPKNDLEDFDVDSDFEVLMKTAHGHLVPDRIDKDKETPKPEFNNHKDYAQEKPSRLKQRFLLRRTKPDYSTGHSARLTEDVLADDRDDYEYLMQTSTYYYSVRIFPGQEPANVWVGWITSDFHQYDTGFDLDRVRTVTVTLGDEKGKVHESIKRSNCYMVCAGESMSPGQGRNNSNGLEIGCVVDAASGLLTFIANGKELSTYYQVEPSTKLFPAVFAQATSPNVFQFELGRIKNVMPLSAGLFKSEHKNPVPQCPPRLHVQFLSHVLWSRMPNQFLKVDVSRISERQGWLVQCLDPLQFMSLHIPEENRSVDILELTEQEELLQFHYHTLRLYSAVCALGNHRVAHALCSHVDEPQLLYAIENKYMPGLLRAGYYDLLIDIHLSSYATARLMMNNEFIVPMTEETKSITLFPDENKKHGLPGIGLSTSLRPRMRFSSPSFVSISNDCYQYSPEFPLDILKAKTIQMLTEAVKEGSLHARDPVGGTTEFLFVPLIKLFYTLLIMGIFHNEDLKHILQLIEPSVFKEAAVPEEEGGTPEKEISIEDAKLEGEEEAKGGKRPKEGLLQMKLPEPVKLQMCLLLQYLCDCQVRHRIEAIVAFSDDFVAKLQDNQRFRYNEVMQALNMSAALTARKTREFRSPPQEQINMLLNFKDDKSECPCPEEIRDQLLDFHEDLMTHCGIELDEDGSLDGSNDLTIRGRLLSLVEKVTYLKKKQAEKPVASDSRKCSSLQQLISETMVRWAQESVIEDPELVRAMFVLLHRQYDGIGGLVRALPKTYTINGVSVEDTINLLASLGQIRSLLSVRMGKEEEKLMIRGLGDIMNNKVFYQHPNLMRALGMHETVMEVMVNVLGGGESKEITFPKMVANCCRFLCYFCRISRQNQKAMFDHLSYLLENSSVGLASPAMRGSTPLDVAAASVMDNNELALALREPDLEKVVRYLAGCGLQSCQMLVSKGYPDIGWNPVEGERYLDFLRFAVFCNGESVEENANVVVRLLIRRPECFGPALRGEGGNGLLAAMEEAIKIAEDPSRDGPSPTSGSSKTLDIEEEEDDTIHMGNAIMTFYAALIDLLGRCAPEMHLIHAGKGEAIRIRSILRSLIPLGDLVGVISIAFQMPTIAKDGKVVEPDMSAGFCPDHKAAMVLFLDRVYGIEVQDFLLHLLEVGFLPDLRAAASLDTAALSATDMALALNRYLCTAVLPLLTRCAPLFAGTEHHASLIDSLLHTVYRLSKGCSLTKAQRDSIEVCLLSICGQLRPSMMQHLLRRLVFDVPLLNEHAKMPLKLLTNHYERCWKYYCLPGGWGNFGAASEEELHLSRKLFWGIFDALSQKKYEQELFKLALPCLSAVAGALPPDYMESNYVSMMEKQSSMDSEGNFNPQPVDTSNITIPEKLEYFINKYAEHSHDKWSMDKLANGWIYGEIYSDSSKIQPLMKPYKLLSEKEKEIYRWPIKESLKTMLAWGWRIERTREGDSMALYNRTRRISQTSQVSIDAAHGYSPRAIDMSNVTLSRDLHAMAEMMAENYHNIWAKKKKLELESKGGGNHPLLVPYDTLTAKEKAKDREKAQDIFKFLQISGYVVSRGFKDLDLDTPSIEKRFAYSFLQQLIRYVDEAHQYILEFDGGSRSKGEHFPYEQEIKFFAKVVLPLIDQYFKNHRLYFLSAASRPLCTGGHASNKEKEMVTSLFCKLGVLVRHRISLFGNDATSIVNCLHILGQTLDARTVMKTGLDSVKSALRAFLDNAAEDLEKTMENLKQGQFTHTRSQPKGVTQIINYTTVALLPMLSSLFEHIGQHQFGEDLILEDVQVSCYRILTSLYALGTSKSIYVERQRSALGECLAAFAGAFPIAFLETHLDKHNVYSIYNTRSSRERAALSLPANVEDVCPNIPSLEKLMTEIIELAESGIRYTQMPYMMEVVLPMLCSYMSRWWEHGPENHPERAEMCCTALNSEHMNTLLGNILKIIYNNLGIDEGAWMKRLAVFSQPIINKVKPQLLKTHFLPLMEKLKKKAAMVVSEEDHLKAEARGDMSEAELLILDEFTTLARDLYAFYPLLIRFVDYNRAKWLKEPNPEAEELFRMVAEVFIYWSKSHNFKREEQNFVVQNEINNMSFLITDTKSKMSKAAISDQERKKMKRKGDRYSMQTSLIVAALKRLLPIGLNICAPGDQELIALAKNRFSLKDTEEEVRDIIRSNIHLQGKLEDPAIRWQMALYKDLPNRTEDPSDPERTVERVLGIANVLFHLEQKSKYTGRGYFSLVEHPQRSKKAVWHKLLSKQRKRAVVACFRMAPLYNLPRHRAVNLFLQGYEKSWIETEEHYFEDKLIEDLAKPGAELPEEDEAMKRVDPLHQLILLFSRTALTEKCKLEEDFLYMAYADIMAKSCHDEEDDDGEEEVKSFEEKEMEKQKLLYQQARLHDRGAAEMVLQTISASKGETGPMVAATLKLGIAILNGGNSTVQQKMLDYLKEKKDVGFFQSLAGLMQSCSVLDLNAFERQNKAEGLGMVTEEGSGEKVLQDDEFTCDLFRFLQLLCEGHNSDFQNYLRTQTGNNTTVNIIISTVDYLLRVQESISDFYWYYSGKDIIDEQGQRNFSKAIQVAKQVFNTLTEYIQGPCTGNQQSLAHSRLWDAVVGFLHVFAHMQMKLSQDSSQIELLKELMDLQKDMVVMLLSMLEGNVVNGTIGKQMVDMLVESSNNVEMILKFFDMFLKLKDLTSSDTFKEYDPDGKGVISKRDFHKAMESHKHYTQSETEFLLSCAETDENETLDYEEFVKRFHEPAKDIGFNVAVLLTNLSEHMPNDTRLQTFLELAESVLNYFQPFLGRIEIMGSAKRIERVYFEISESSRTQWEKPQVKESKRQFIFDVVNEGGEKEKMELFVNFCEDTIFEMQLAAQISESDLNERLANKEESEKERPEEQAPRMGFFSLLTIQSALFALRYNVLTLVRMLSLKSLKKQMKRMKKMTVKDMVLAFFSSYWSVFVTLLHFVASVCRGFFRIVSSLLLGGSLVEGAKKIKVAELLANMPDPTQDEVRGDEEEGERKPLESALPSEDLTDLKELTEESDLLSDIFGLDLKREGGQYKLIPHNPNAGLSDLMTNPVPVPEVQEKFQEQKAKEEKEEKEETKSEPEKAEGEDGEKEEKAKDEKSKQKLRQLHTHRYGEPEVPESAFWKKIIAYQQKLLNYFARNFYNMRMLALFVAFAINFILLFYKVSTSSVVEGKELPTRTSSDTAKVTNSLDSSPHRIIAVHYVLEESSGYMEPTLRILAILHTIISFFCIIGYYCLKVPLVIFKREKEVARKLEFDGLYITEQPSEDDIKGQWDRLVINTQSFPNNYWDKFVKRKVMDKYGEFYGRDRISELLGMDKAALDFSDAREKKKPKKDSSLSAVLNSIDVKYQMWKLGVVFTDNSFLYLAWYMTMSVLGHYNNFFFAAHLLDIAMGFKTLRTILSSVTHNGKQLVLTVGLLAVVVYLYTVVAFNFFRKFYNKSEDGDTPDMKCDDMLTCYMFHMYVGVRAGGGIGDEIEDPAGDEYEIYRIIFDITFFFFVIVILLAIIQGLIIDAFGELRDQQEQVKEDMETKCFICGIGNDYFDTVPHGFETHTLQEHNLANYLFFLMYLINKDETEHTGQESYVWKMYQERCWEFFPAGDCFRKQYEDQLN

On to `CCCCC[C@@H]1OC(=O)[C@@H](C)N(C)C(=O)[C@H](CCCCC)OC(=O)[C@@H](C)N(C)C(=O)[C@H](CCCCC)OC(=O)[C@@H](C)N(C)C1=O` (single isomer, unassigned) [ent-B1], for which the “time of peak plasma concentration after i.p. injection” value in data set [1] (3 mg/kg i.p.) is recorded as 10 min. The “clinical observation during PK experiment” value in data set [1] (3 mg/kg i.p., CD1 mice) was “no abnormality”. In addition, the “ke (elimination rate constant)” value in data set [1] (3 mg/kg intraperitoneal, CD1 mice) stood at 0.932 ± 0.139 h⁻¹. Besides, the half-life is 45.4 min in data set [1] (male, CD1, mouse, plasma, ip, 3 mg/kg i.p., mice, read-out: mean elimination half-life (t1/2)) and 45.4 ± 7.38 min in data set [1] (male, CD1, mouse, plasma, ip, 3 mg/kg intraperitoneal, CD1 mice, read-out: T1/2 (elimination half-life) (converted)). The Cmax was found to be 2300 nM in data set [1] (male, CD1, mouse, plasma, ip, 3 mg/kg i.p., read-out: mean peak plasma concentration (Cmax)) and 1460 ng/mL in data set [1] (male, mouse, ip, 3 mg/kg intraperitoneal, CD1 mice, plasma, read-out: Cmax). The AUC(0-inf) in data set [1] (setting [3]) was determined as 1020 ± 184 ng·h/mL. The compound also gave a CL/F in data set [1] (setting [3]) of 50.2 mL/min/kg. Further, in data set [1] (setting [3]), the Tmax was 10 min. Further, the Vd/F in data set [1] (male, mouse, plasma, ip, 3 mg/kg intraperitoneal, CD1 mice, read-out: Vz/F) is 3.32 ± 1 L/kg. Besides, in data set [1] (mouse, in vivo), the “peak plasma concentration in vivo relative to IC50 in cardiomyocytes” value was “more than 10 fold”. Moreover, the “RyR2-mediated Ca2+ spark frequency” value in data set [2] (25 μM, 10 minutes incubation, vs vehicle (DMSO)) is reported as “significantly inhibited”. For the same compound, the “activity in the calcium spark assay (summary statement)” value is reported as “potent inhibitor” in data set [2] (listed as 8) and “potent” in data set [2] (listed as 18-membered COD).

One may read the AUC(0-inf) as total exposure, with the tail of the curve extrapolated. A higher AUC(0-inf) goes with high exposure. Broadly, the CL/F is clearance divided by bioavailability, as obtained after extravascular dosing. As a reminder, the Tmax is the time at which the peak concentration occurs.
